Experimental data as given in US9539298B2, “Lissencephaly therapeutic agent” (OSAKA CITY UNIVERSITY, priority 2010, dated 2017).

System: fibroblasts derived from human lissencephaly patient (Lis1 +/−)
Assay: Fluorescence immunostaining of fibroblasts derived from a human lissencephaly patient
Format: cell-based
Conditions: 200 μM, two hours
Description: The establishment of fibroblasts was performed in the following manner. Under a germ-free condition, a portion of epidermis (5 mm square) was obtained from a lissencephaly patient. The obtained epidermis was transported for 4 hours at room temperature while stored in a culture solution (E-MEM (Wako Pure Chemical Industries, Ltd., 051-07615), 10% fetal bovine blood serum (Equitech-Bio Inc, SFBM30-1798, 1×L-glutamine (Gibco, 25030), 1× Pen-Strep (Gibco, 15140)) (*the culture solution with this formulation is used hereinafter). After transportation, the tissue fragment was cut into a 1 mm square, fixed to a culture flask (Becton Dickinson 353009), and cultured for three weeks in 6 ml of a culture solution. After the 3-week culture, the amplification of fibroblasts from the tissue fragment was confirmed; then, the fragment was washed with a phosphate buffer physiological saline solution (phosphate buffered saline, PBS (−), 137 mM NaCl, 2.7 mM KCl, 10 mM Na2HPO4, 1.8 mM KH2PO4, pH 7.4), and 0.5 ml of trypsin-EDTA (Gibco, 25200) was added, followed by reaction for 5 minutes at 37° C. to separate the cells. Then, 10 ml of a culture solution was added, and the fragment was transferred to a 10 cm petri dish (Greiner, 664-160) for culture.
To observe the cells with a microscope, the cells were cultured on cover glasses. The cover glasses (24×24 No. 1, Matsunami Glass Ind., Ltd.) were immersed in 0.1 M hydrochloric acid for 20 minutes. After washing with water, the cover glasses were placed in 70% ethanol, and kept in a clean bench. In the clean bench, each cover glass was placed on the bottom of each well of a 6-well plate (Falcon 353046). After the ethanol was dried, 0.5×10^5 fibroblasts per well were added and cultured for 16 hours, thereby adhering the cells onto the cover glasses.
A SNJ-1945-containing culture solution was prepared. […]

COCCOCCOC(=O)N[C@@H](CC(C)C)C(=O)N[C@@H](Cc1ccccc1)C(=O)C(=O)NC1CC1 [compound 17, ((1S)-1-((((1S)-1-Benzyl-2,3-dioxo-3-(cyclopropylamino)propyl)amino)carbonyl)-3-methylbutyl)carbamic acid 5-methoxy-3-oxapentyl ester]
intracellular distribution of LIS1 (FIGS. 15 and 16): causes LIS1 to be accumulated around the nucleus or centrosome again
intracellular distribution of cytoplasmatic dynein (FIGS. 17 and 18): cytoplasmatic dynein became completely diffused again from the region around the nucleus to the cell marginal zone
intracellular distribution of β-COP-coated vesicles (FIGS. 19 and 20): β-COP-coated vesicles became distributed evenly from the region around the nucleus to the cell marginal zone again
